The values below come from ChEMBL document CHEMBL5325409, “Exploiting HOPNO-dicopper center interaction to development of inhibitors for human tyrosinase” (Eur J Med Chem, 2023).

As a reminder, the IC50 is the concentration needed to halve the response being measured. A lower IC50 goes with inhibition by little substance. As usually defined, the Ki is a dissociation constant, usually derived from enzyme kinetics or from competition with a known ligand. High values mean weaker binding, low ones tighter binding.

SMILES strings stand for the structures.

Assay [1] deals with T1, Tyrosinase (Mus musculus, UniProt P11344).
T1 sequence (P11344 whole entry): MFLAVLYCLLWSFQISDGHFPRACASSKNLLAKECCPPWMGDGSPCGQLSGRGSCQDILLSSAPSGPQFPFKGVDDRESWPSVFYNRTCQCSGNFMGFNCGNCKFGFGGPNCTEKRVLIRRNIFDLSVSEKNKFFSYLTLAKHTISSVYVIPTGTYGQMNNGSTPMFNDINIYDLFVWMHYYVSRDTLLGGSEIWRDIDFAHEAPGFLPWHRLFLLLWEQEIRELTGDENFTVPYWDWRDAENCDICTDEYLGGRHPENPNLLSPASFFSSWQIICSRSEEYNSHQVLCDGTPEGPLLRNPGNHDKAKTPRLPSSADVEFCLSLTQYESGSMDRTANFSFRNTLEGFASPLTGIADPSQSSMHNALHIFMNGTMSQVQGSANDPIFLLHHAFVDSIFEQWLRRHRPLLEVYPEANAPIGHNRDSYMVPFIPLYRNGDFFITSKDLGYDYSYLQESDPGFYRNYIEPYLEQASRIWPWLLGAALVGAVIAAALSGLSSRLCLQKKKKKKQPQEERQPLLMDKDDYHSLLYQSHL
Description: Inhibition of tyrosinase in mouse B16-F10 cells assessed as inhibition of melanin production measured after 72 hrs

Assay [2] deals with Mushroom tyrosinase (Agaricus bisporus, UniProt O42713+Q00024+C7FF04+C7FF05).
Description: Competitive inhibition of Agaricus bisporus tyrosinase using L-DOPA as substrate by Michelis-Menten based analysis
The target of assay [3] is T2, Tyrosinase (Homo sapiens, UniProt P14679).
T2 sequence (P14679 whole entry): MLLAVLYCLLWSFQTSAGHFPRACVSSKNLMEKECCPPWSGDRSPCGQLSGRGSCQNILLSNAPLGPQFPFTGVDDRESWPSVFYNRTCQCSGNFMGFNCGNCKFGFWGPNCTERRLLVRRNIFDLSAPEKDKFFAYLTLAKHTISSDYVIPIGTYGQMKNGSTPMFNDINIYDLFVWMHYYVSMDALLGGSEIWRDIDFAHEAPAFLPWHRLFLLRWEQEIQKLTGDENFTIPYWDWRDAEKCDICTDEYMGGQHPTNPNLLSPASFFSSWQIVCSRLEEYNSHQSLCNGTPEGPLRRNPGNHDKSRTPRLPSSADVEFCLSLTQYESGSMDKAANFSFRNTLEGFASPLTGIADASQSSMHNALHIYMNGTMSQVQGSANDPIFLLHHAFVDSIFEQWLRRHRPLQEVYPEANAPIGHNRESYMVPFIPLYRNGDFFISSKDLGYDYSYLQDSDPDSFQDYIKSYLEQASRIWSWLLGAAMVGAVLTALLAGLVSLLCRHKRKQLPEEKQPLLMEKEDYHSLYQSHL
Description: Competitive inhibition of human recombinant tyrosinase expressed in Sf9 cells using L-DOPA as substrate by Michelis-Menten based analysis

Assay [4] addresses T3, Tyrosinase (Streptomyces antibioticus, UniProt P07524).
T3 sequence (P07524 whole entry): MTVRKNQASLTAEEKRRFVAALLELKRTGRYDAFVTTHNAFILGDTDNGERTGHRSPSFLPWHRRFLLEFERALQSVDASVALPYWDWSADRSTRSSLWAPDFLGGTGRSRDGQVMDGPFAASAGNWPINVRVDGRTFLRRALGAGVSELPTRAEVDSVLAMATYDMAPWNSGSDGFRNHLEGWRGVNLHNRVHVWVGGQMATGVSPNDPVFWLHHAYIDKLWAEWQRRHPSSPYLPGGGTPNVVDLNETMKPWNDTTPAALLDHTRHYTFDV
Description: Competitive inhibition of Streptomyces antibioticus tyrosinase using L-DOPA as substrate by Michelis-Menten based analysis

The target in assay [5] is T2, Tyrosinase. In kind it is subcellular, MNT-1, Lysates.
Assay [6] concerns the target T2, Tyrosinase. The format is cell-based, MNT-1.
Description: Inhibition of tyrosinase in human MNT-1 cells assessed as inhibition of melanin production measured after 96 hrs

As to `O=c1ccc(CO)cn1O`, 61.2 µM corresponded to half-maximal inhibition in assay [1] (IC50). Besides, the inhibition constant Ki in assay [2] came out at 1.2 µM; in assay [3], 7.5 µM; in assay [4], 4.1 µM.
For the molecule `Cl.N[C@H](Cc1ccc(=O)n(O)c1)C(=O)O`, the inhibitory constant (Ki) amounted to 12.8 µM in assay [2], 76 µM in assay [3] and 16 µM in assay [4]. Also, the values for the IC50 in assay [5] and in assay [6] were 277 µM and over 400 µM, respectively.
`Cl.NC(Cc1ccc(=O)n(O)c1)C(=O)O` (racemic): the IC50 in assay [1] was 10 µM; in assay [5], 90 µM; in assay [6], over 400 µM. Moreover, the inhibitory constant (Ki) worked out at 1.2 µM in assay [2], 6 µM in assay [3] and 42 µM in assay [4].
As for `Cl.N[C@@H](Cc1ccc(=O)n(O)c1)C(=O)O`, the Ki amounted to 12.5 µM in assay [2], 8 µM in assay [3] and 39 µM in assay [4]. Also, the IC50 in assay [5] was 73.6 µM; in assay [6], over 400 µM.
